According to US11124605B2, “Antimicrobial alpha-helical cationic polypeptides” (priority 2015, dated 2021):

Experiments:
[1] = system: trypsin, pronase, elastase from Pseudomonas aeruginosa, elastase from human leukocytes; experiment: Stability of polypeptides against protease (HPLC); type: in vitro ADME; conditions: 8 h incubation with trypsin, P. aeruginosa elastase or human leukocyte elastase
Protocol: As a positive control, LL-37 (0.1 mg/mL) was also incubated with trypsin (0.1 mg/mL) or pronase (12 mg/L) or Pseudomonas Aeruginosa elastase (0.6 mg/L) in Tris buffer (pH 7.4) at 37° C. LL-37 (0.1 mg/mL) was incubated with elastase from human leukocytes (2.5 mg/L) in sodium acetate buffer at 37° C. After 8 h of incubation, the samples were taken out for HPLC analyses.

[2] = system: MG1655 (E. coli); experiment: Minimal inhibitory concentration (MIC); type: cell-based, Escherichia coli; conditions: without polypeptide
Protocol: (§1) Gram-negative bacteria, DH5a (E. coli), MG1655 (E. coli), C101 (Pseudomonas aeruginosa), and Gram-positive bacteria, ATCC12608 (S. aureus), ATCC11778 (Bacillus toyonensis), and methicillin-resistant S. aureus (MRSA) strains, NRS382, NRS383, NRS384 were grown in LB medium at 37° C. Clinical isolated Helicobacter pylori strains, B107, J291, J99, J99-AF, J99-A9 and J99-A11 were incubated in BB with 10% FBS supplemented with vancomycin (5 μg/mL) at 37° C. Among them, J99-AF, J99-A9 and J99-A11 are drug resistant bacteria. For determination of the MIC, polypeptides were dissolved in media using serial dilutions from a stock solution. Into each well of a 96-well plate was added 200 μL of each concentration and 2 μL of bacteria (1×10^8 CFU (colony forming units)) in medium. The plate was incubated at 37° C. The optical density readings of microorganism solutions were measured after 24 h incubation. The MIC was considered as the lowest concentration of peptide where no visual growth of bacteria was detected.

[3] = system: C101 (Pseudomonas aeruginosa); experiment: Minimal inhibitory concentration (MIC); type: cell-based; conditions: without polypeptide
Protocol: as §1

[4] = system: DH5α (Escherichia coli); experiment: Minimal inhibitory concentration (MIC); type: cell-based; conditions: without polypeptide
Protocol: Gram-negative bacteria, DH5a (E. coli), MG1655 (E. coli), C101 (Pseudomonas aeruginosa), and Gram-positive bacteria, ATCC12608 (S. aureus), ATCC11778 (Bacillus toyonensis), and methicillin-resistant S. aureus (MRSA) strains, NRS382, NRS383, NRS384 were grown in LB medium at 37° C. […] For determination of the MIC, polypeptides were dissolved in media using serial dilutions from a stock solution. Into each well of a 96-well plate was added 200 μL of each concentration and 2 μL of bacteria (1×10^8 CFU (colony forming units)) in medium. The plate was incubated at 37° C. The optical density readings of microorganism solutions were measured after 24 h incubation. The MIC was considered as the lowest concentration of peptide where no visual growth of bacteria was detected.

[5] = system: ATCC12608 (Staphylococcus aureus); experiment: Minimal inhibitory concentration (MIC); type: cell-based; conditions: without polypeptide
Protocol: as §1
The stability of polypeptide was tested in the MIC assay in different environments, including salts, serum, plasma, tear fluid, and mucin. […]

[6] = system: ATCC11778 (Bacillus toyonensis); experiment: Minimal inhibitory concentration (MIC); type: cell-based; conditions: without polypeptide
Protocol: as §1

Row | Molecule | MIC of antibiotic [2] [µM] | MIC of antibiotic [3] [µM] | also measured
1 | LL-37 |  |  | proteolytic degradation by HPLC [1]: readily degraded
2 | C[C@H]1c2cccc(O)c2C(=O)C2=C(O)[C@]3(O)C(=O)C(C(N)=O)=C(O)[C@@H](N(C)C)[C@@H]3[C@@H](O)[C@@H]21 [Doxycycline, doxycycline] | 4.5 | 288.0 | 
3 | CO[C@H]1/C=C/O[C@@]2(C)Oc3c(C)c(O)c4c(O)c(c(/C=N/N5CCN(C)CC5)c(O)c4c3C2=O)NC(=O)/C(C)=C\C=C\[C@H](C)[C@H](O)[C@@H](C)[C@@H](O)[C@@H](C)[C@H](OC(C)=O)[C@@H]1C [Rifampicin, rifampicin] | 9.7 | 77.8 | 
4 | gentamicin | 2.1 | 8.4 | 
5 | [H]/N=C(/N)N[C@H]1[C@H](O)[C@@H](O)[C@H](O[C@@H]2O[C@@H](C)[C@](O)(C=O)[C@H]2O[C@@H]2O[C@@H](CO)[C@H](O)[C@@H](O)[C@@H]2NC)[C@@H](N/C(N)=N\[H])[C@@H]1O [Streptomycin, streptomycin] |  |  | MIC of antibiotic [4]: 6.9 µM; MIC of antibiotic [5]: 6.9 µM; MIC of antibiotic [6]: 6.9 µM
